According to patent EP4707280A1, “1,4-CINEOLE DERIVATIVE AND INTERMEDIATE THEREOF, HERBICIDE CONTAINING SAID DERIVATIVE AS ACTIVE INGREDIENT, METHOD FOR USING HERBICIDE, AND METHOD FOR PREPARING AGROCHEMICAL COMPOSITION” (HOKKO CHEMICAL INDUSTRY CO., LTD., priority 2023, dated 2024):

Tests used:
Assay type in all cases: in vivo
[1] = test system: Echinochloa crus-galli var. formosensis; assay: Test Example 6: herbicidal effect test by application during growth period of paddy rice (low dose); details: Echinochloa crus-galli; 7.5 g per 10 ares; applied seven days after sowing, flooded pots; 14 days after application; read-out: weed inhibition rate
Procedure, shortened: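 Formulated compound, diluted in water, was dropped onto flooded pots seven days post-sowing at 7.5 g a.i. per 10 ares. Seeds had been sown 0-1 cm deep in puddled paddy soil under ~3 cm water in a glass greenhouse. Inhibition (%) assessed at 14 days; duplicate pots.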

[2] = test system: Echinochloa crus-galli var. formosensis; assay: Test Example 5: herbicidal effect test by soil application in paddy rice (low dose); details: Echinochloa crus-galli, soil, 336 h; 7.5 g per 10 ares; applied immediately after sowing, flooded pots; 14 days after application; read-out: weed inhibition rate
Procedure, shortened: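 Dose of 7.5 g a.i. per 10 ares, applied by dropper as diluted emulsifiable concentrate to flooded (~3 cm) paddy pots immediately after sowing seeds at 0–1 cm. Kept in a glass greenhouse; duplicate pots rated at 14 days post-application.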

Echinochloa crus-galli [3] = assay: Test Example 4: herbicidal effect test by stem and leaf treatment in upland field; details: Echinochloa crus-galli; 120 g per 10 ares; sprayed seven days after sowing, upland soil; 14 days after application; read-out: weed inhibition rate
Echinochloa crus-galli [4] = assay: Test Example 7: herbicidal effect test by soil application in upland field (low dose); details: Echinochloa crus-galli, 7.5 g per 10 ares, sprayed one day after sowing, 14 days after application, read-out: weed inhibition rate
Procedure, shortened: (§1)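 Pre-emergence soil treatment: 7.5 g a.i. per 10 a applied as water-diluted emulsifiable concentrate (100 L/10 a) to soil surface one day post-sowing in alluvial loam. Inhibition (%) assessed at 14 days, duplicate pots per concentration.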

Digitaria ciliaris [5] = assay: as above; details: Digitaria ciliaris, 7.5 g per 10 ares, sprayed one day after sowing, 14 days after application, read-out: weed inhibition rate
Procedure, shortened: as §1

Digitaria ciliaris [6] = assay: Test Example 4: herbicidal effect test by stem and leaf treatment in upland field; details: Digitaria ciliaris; 120 g per 10 ares; sprayed seven days after sowing, upland soil; 14 days after application; read-out: weed inhibition rate
Echinochloa crus-galli [7] = assay: Test Example 8: herbicidal effect test by stem and leaf treatment in upland field (low dose); details: Echinochloa crus-galli; 7.5 g per 10 ares; sprayed seven days after sowing, upland soil; 14 days after application; read-out: weed inhibition rate
Digitaria ciliaris [8] = assay: as above; details: Digitaria ciliaris; 7.5 g per 10 ares; sprayed seven days after sowing, upland soil; 14 days after application; read-out: weed inhibition rate
Scirpus juncoides [9] = assay: Test Example 1: herbicidal effect test by soil application in paddy rice; details: Schoenoplectiella juncoides, soil, 336 h; 120 g active ingredient per 10 ares; applied immediately after sowing, flooded pots; 14 days after application; read-out: weed inhibition rate
Procedure, shortened: (§2)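 Pre-emergence paddy treatment: diluted emulsifiable concentrate applied by dropper at 120 g a.i./10 ares immediately after sowing. Seeds (30 per species, 0–1 cm deep) in fertilized, puddled paddy soil kept under ~3 cm flood in a glass greenhouse.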

[10] = test system: Echinochloa crus-galli var. formosensis; assay: as above; details: Echinochloa crus-galli, soil, 336 h; 120 g active ingredient per 10 ares; applied immediately after sowing, flooded pots; 14 days after application; read-out: weed inhibition rate
Procedure, shortened: as §2

Scirpus juncoides [11] = assay: Test Example 2: herbicidal effect test by application during growth period of paddy rice; details: Schoenoplectiella juncoides; 120 g per 10 ares; applied seven days after sowing, flooded pots; 14 days after application; read-out: weed inhibition rate
Procedure, shortened: (§3)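 Herbicidal effect was scored 14 days after treatment, in duplicate per concentration. Weeds sown 0–1 cm deep in puddled, fertilized paddy soil under about 3 cm of standing water received a water-diluted emulsifiable concentrate by dropper 7 days post-sowing, at 120 g a.i. per 10 ares.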

[12] = test system: Echinochloa crus-galli var. formosensis; assay: as above; details: Echinochloa crus-galli; 120 g per 10 ares; applied seven days after sowing, flooded pots; 14 days after application; read-out: weed inhibition rate
Procedure, shortened: as §3

Echinochloa crus-galli [13] = assay: Test Example 3: herbicidal effect test by soil application in upland field; details: Echinochloa crus-galli, 120 g per 10 ares, sprayed one day after sowing, 14 days after application, read-out: weed inhibition rate
Procedure, shortened: (§4)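 Weed inhibition (%) was assessed 14 days after treatment, in duplicate per concentration group. Seeds had been mixed into the upper 1 cm of upland alluvial loam, and the soil surface was sprayed one day later with the diluted emulsifiable concentrate at 120 g active ingredient per 10 ares.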

Digitaria ciliaris [14] = assay: as above; details: Digitaria ciliaris, 120 g per 10 ares, sprayed one day after sowing, 14 days after application, read-out: weed inhibition rate
Procedure, shortened: as §4

CC(C)C12CC(OCc3c(F)cccc3Br)C(C)(CC1Cl)O2 (stereo not shown) [1-1611, 2-[(2-bromo-6-fluorophenyl)methoxy]-5-chloro-1-methyl-4-isopropyl-7-oxabicyclo[2.2.1]heptane]
≥ 80%: inhibition at 75 g/ha [1] | inhibition at 75 g/ha [2] | inhibition at 1200 g/ha (Echinochloa crus-galli [3]) | inhibition at 75 g/ha (Echinochloa crus-galli [4]) | inhibition at 75 g/ha (Digitaria ciliaris [5]) | inhibition at 1200 g/ha (Digitaria ciliaris [6]) | inhibition at 75 g/ha (Echinochloa crus-galli [7]) | inhibition at 75 g/ha (Digitaria ciliaris [8]) | pest or weed control at 1200 g/ha (Scirpus juncoides [9]) | pest or weed control at 1200 g/ha [10] | inhibition at 1200 g/ha (Scirpus juncoides [11]) | inhibition at 1200 g/ha [12] | inhibition at 1200 g/ha (Echinochloa crus-galli [13]) | inhibition at 1200 g/ha (Digitaria ciliaris [14])

CC(C)C12CC(OCc3c(F)cccc3Br)C(C)(CC1I)O2 (stereo not shown) [1-1612, 5-[(2-bromo-6-fluoro-phenyl)methoxy]-2-iodo-1-isopropyl-4-methyl-7-oxabicyclo[2.2.1]heptane]
≥ 80%: inhibition at 75 g/ha [1] | inhibition at 75 g/ha [2] | inhibition at 1200 g/ha (Echinochloa crus-galli [3]) | inhibition at 75 g/ha (Echinochloa crus-galli [4]) | inhibition at 75 g/ha (Digitaria ciliaris [5]) | inhibition at 1200 g/ha (Digitaria ciliaris [6]) | inhibition at 75 g/ha (Echinochloa crus-galli [7]) | inhibition at 75 g/ha (Digitaria ciliaris [8]) | pest or weed control at 1200 g/ha (Scirpus juncoides [9]) | pest or weed control at 1200 g/ha [10] | inhibition at 1200 g/ha (Scirpus juncoides [11]) | inhibition at 1200 g/ha [12] | inhibition at 1200 g/ha (Echinochloa crus-galli [13]) | inhibition at 1200 g/ha (Digitaria ciliaris [14])

CC(C)[C@]12C[C@@H](OCc3c(F)cccc3Br)[C@](C)(C[C@@H]1Cl)O2 [1-1613, (1R,2S,4S,5R)-5-[(2-bromo-6-fluoro-phenyl)methoxy]-2-chloro-1-isopropyl-4-methyl-7-oxabicyclo[2.2.1]heptane]
≥ 80%: inhibition at 75 g/ha [1] | inhibition at 75 g/ha [2] | inhibition at 1200 g/ha (Echinochloa crus-galli [3]) | inhibition at 75 g/ha (Echinochloa crus-galli [4]) | inhibition at 75 g/ha (Digitaria ciliaris [5]) | inhibition at 1200 g/ha (Digitaria ciliaris [6]) | inhibition at 75 g/ha (Echinochloa crus-galli [7]) | inhibition at 75 g/ha (Digitaria ciliaris [8]) | pest or weed control at 1200 g/ha (Scirpus juncoides [9]) | pest or weed control at 1200 g/ha [10] | inhibition at 1200 g/ha (Scirpus juncoides [11]) | inhibition at 1200 g/ha [12] | inhibition at 1200 g/ha (Echinochloa crus-galli [13]) | inhibition at 1200 g/ha (Digitaria ciliaris [14])

CC(C)[C@]12C[C@@H](OCc3c(F)cccc3Br)[C@](C)(C[C@@H]1I)O2 [1-1614, (1R,2S,4S,5R)-5-[(2-bromo-6-fluoro-phenyl)methoxy]-2-iodo-1-isopropyl-4-methyl-7-oxabicyclo[2.2.1]heptane]
≥ 80%: inhibition at 75 g/ha [1] | inhibition at 75 g/ha [2] | inhibition at 1200 g/ha (Echinochloa crus-galli [3]) | inhibition at 75 g/ha (Echinochloa crus-galli [4]) | inhibition at 75 g/ha (Digitaria ciliaris [5]) | inhibition at 1200 g/ha (Digitaria ciliaris [6]) | inhibition at 75 g/ha (Echinochloa crus-galli [7]) | inhibition at 75 g/ha (Digitaria ciliaris [8]) | pest or weed control at 1200 g/ha (Scirpus juncoides [9]) | pest or weed control at 1200 g/ha [10] | inhibition at 1200 g/ha (Scirpus juncoides [11]) | inhibition at 1200 g/ha [12] | inhibition at 1200 g/ha (Echinochloa crus-galli [13]) | inhibition at 1200 g/ha (Digitaria ciliaris [14])

CCNC(=O)O[C@H]1C[C@]2(C)O[C@@]1(C(C)C)C[C@H]2OCc1ccccc1F [1-1615, [(1R,2S,4S,5R)-5-[(2-fluorophenyl)methoxy]-1-isopropyl-4-methyl-7-oxabicyclo[2.2.1]heptan-2-yl] N-ethylcarbamate]
≥ 80%: inhibition at 75 g/ha [1] | inhibition at 75 g/ha [2] | inhibition at 1200 g/ha (Echinochloa crus-galli [3]) | inhibition at 75 g/ha (Echinochloa crus-galli [4]) | inhibition at 75 g/ha (Digitaria ciliaris [5]) | inhibition at 1200 g/ha (Digitaria ciliaris [6]) | inhibition at 75 g/ha (Echinochloa crus-galli [7]) | inhibition at 75 g/ha (Digitaria ciliaris [8]) | pest or weed control at 1200 g/ha (Scirpus juncoides [9]) | pest or weed control at 1200 g/ha [10] | inhibition at 1200 g/ha (Scirpus juncoides [11]) | inhibition at 1200 g/ha [12] | inhibition at 1200 g/ha (Echinochloa crus-galli [13]) | inhibition at 1200 g/ha (Digitaria ciliaris [14])
